Experimental data as given in US9718781B2, “Methods and compounds for treating proliferative disorders and viral infections” (University College Dublin, National University of Ireland, …, priority 2012, dated 2017).
Several values for one entry are separate records, joined by “and”; a condition that tells them apart may be missing. Equal values may be shown once. Read-outs that look alike come from different tables or passages of the source.

What was measured:
TPβ = target: T1, TPβ (Homo sapiens, UniProt P21731); assay: U46619-induced [Ca2+]i mobilization in HEK.TPβ cells; type: cell-based; settings: HEK.TPβ cells; 1 μM U46619; Table 2; read-out: IC50 data for U46619-mediated [Ca2+]i mobilization, TPβ
T1 construct: expressed in transfected cells
T1 sequence (P21731 1-407 isoform P21731-2): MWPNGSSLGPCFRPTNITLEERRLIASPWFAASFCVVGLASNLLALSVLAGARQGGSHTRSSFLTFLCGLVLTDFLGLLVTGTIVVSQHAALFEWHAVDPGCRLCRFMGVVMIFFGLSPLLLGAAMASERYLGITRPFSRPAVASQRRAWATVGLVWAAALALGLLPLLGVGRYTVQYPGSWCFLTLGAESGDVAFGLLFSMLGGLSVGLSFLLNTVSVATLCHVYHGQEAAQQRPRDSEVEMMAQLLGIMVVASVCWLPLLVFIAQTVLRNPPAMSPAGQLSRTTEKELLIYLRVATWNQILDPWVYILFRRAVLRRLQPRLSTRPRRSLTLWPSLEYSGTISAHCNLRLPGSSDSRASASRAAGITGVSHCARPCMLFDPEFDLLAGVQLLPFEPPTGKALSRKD
Description: (§1) An appropriate functional test for the evaluation of the agonistic and/or antagonistic potency of the compounds of the invention is the determination of calcium flux. Both TPα and TPβ are coupled to the G-protein Gαq. Therefore, stimulation of these receptors ultimately leads to a release of intracellular calcium ([Ca^2+]i) from intracellular stores. Consequently, the determination of [Ca^2+]i flux represents an appropriate functional test for the evaluation of the agonistic/antagonistic potency of compounds of the invention. Calcium can be measured using a molecule characterized by the covalent combination of a Ca^2+ chelating group and a fluorophore group. The Ca^2+ binding properties of these indicators are formed by the presence of a tetracarboxylic acid core as found for example in EGTA (Ethylene Glycol bis(2-aminoethyl)Tetraacetic Acid). Binding of Ca^2+ produces a wavelength shift in either the excitation or emission fluorescence spectra or a change in the emission intensity. Whereas the Ca^2+ binding to EGTA is pH dependent, recent dyes are designed from an EGTA derivative, BAPTA (1,2-Bis(2-Aminophenoxy)ethane-N,N,N′,N′-Tetraacetic Acid). Loading of these dyes inside cells commonly uses esterified forms (acetoxymethyl ester), which are able to cross the cell membranes and are subsequently hydrolyzed by esterases inside the cell.
(§2) Estimation of [Ca^2+]i flux is calculated from the fluorescence signal (F). For calibration, the maximal fluorescence (Fmax, Ca^2+-saturated form of the dye) as well as minimal fluorescence (Fmin, Ca^2+-free form of the dye) must be determined. These parameters are determined usually in situ after the experiment, for example by subsequent addition to the mixture of a cell-disrupting agent that releases all Ca^2+ such as Triton X100 and a potent Ca^2+-chelating agent such as EGTA. After subtraction of background fluorescence, [Ca^2+]; flux can be calculated for non-ratiometric indicators.
(§3) Intracellular [Ca^2+]; fluxes were measured using a fluorescence plate reader following a modified protocol of Kassack et al., ‘Quantitative comparison of functional screening by measuring intracellular Ca^2+ with radioligand binding at recombinant human dopamine receptors’, AAPS Pharmsci, 2002, 4(4); 102-111, in cell lines (e.g. HEK293 or other cell type) endogenously-expressing or over-expressing either TPα, TPβ or any other receptor or protein to be screened.
(§4) By way of example, HEK 293 cells which have been grown for 3-4 days in normal growth media (minimum essential media containing 10% FBS and 2 mmol/1 L-glutamine), under normal growth conditions (37° C., in humidified 5% CO2 atmosphere) are washed and harvested in KREBs-HEPES buffer (118 mM NaCl, 4.7 mM KCl, 1.2 mM MgSO4, 1.2 mM KH2PO4, 4.2 mM NaHCO3, 11.7 mM D-glucose, 1.3 mM CaCl2, 10 mM HEPES, pH 7.4). Cells are then incubated with 3 μM Fluo-4 in KREBs-HEPES buffer containing 1% Pluoronic F-127, for 1 hr at 25° C. with agitation. Then, cells are washed in KREBs-HEPES buffer containing 0.5% BSA and re-suspended at a final concentration of 3×10^5 cells/ml. Approx. 5.4×10^4 cells per well are plated in a 96-well plate and pre-incubated with test compounds for 10 m prior to measuring the fluorescence intensity at 520 nm for 25 seconds at 1 s intervals to monitor baseline using the Fluoroskan Ascent. Agonist (e.g., 1 μM U46619) is injected into separate wells by the automatic pipettor and fluorescence intensity is monitored at 520 nm for 75 seconds at 1 s intervals. Thereafter, Triton X100 and EGTA are added sequentially where Fmax refers to maximal fluorescence intensity measured after permeabilization of the cells with 2% Triton X100 and Fmin refers to fluorescence intensity measured after addition of 1 mM EGTA.
(§5) The dye Fluo-4 has its excitation peak at 480 nm, in the visible spectra, which spare cells to be damaged by UV (340-360 nm) stimulation and reduces auto-fluorescence of cells. […]

human platelets [1] = assay: U46619-induced human platelet aggregation ex vivo (platelet rich plasma); type: cell-based; settings: human platelets ex vivo, Table 3, read-out: IC50 data for inhibition of U46619-induced platelet aggregation
Description: A modification of the turbidimetric method originally developed by Born & Cross (Born, G. V. and Cross, M. J., The Aggregation of Blood Platelets, J Physiol, 1963, 168:178-95) is used. The principle is based on the diffraction of the light by particles. When a light beam passes through a suspension of particles, it is diffracted, depending on the number and the size of the particles in suspension.
In the Born & Cross method, a light beam passes through a platelet suspension and the quantity of light is measured by a detector placed after the sample. Upon platelet aggregation, the size of platelet aggregates will increase while the total number of free platelets will decrease. Consequently, less light will be diffracted and the detector will record an increase in light intensity. The aggregometer has been developed based on these concepts. Variations in light transmission recorded by this device reflects the platelet physiology. When an agonist of platelet aggregation is added to a platelet suspension, platelets undergo activation and shape change. This step is characterized by an increase in platelet's apparent volume and thus a decrease of transmitted light. Subsequent platelet aggregation gradually forms aggregates of increasing size. Transmitted light slightly increases until a plateau is reached. The aggregation of platelet can be confirmed after the experiment by visual direct inspection of the test tube.
Preparation of platelet suspension is achieved by blood centrifugation at 160 g for 10 minutes. The PRP is re-centrifuged at 160 g for 10 min to remove contaminating red and white blood cells. The supernatant which is collected contains the platelets rich plasma (PRP). The remaining blood is subsequently centrifuged at 900 g for 15 min in order to retrieve plasma (platelets poor plasma, PPP). PRP is diluted with PPP to reach a final concentration of 150×10^3 […] PRP is kept warmed at 37° C. in the aggregometer and the adequate dilution of drug to test is introduced in the sample. Platelet aggregation is induced after 10 minutes incubation. Light transmission (T) is measured throughout the experiment, which is ended 8 minutes after induction of aggregation. Maximal light transmission (Tmax) is determined in the sample without drugs. Minimal light transmission (Tmin) is measured in PRP without inducer.
The effect of NTP4 and the previously identified lead TP antagonist, TP20, on U46619-mediated platelet aggregation in side-by-side comparisons was performed in platelet rich plasma (PRP) using the PAP-8E platelet aggregometer.
FIG. 4A-4C show the effect of TP20 & NTP4 on U46619-mediated platelet aggregation. PRP was prepared from blood taken from healthy volunteers into syringes containing 3.8% sodium citrate and 10 μM indomethacin such that the final ratio of anticoagulant to blood was 1:9. Aliquots of PRP (300 μl) were pre-incubated for 10 min with the TP antagonists, TP20 and NTP4, where 2-fold serial dilutions from 1 μM were prepared for each, prior to stimulating platelets with 1 μM U46619, incubated at 37° C., with stirring. FIG. 4A and FIG. 4B: Representative dose-response platelet aggregation profiles for TP20 (FIG. 4A) and NTP4 (FIG. 4B), where data is presented as Percentage Aggregation, as determined by changes in light transmission using the PAP-8E Platelet Aggregation Profiler as a function of time. FIG. 4C: The dose-response curves for platelet aggregation are presented as the mean (±S.E.M.) maximum Percentage Aggregation as a function of the log of the TP antagonist concentration. Data presented is representative of ≧6 independent experiments.

TPα = target: T2, TPα (Homo sapiens, UniProt P21731); assay: U46619-induced [Ca2+]i mobilization in HEK.TPα cells; type: cell-based; settings: for IC50: HEK.TPα cells, 1 μM U46619, Table 2, read-out: IC50 data for U46619-mediated [Ca2+]i mobilization, TPα; for TPα:TPβ Selectivity Ratio: IC50 TPα/IC50 TPβ
T2 construct: expressed in transfected cells
T2 sequence (P21731 1-343): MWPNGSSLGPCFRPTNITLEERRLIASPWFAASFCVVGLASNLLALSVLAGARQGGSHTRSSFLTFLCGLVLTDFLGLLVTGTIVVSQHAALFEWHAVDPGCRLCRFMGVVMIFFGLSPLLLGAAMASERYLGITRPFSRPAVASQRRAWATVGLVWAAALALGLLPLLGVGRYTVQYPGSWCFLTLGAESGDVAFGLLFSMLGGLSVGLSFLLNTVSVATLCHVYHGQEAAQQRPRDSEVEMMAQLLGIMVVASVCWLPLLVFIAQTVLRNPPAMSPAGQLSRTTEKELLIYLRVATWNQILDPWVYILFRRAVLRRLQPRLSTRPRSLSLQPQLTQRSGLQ
Description: as §1, §2, §3, §4, §5

[2] = system: A/Puerto Rico/8/1934 (H1N1) influenza A virus; type: in vivo, BALB/c mice
human platelets [3] = assay: ADP-induced platelet aggregation of human platelets ex vivo; type: cell-based
Description: (§6) The method of assessing platelet aggregation also allows evaluation of the effect of the compounds of the invention on platelet aggregation upon stimulation by other agonists, e.g., adenosine diphosphate (ADP) and thrombin.

human platelets [4] = assay: Thrombin-induced platelet aggregation of human platelets ex vivo; type: cell-based
Description: as §6

[5] = lung, Day 4, Tamiflu 10 mg/kg, TP20 0.36 mg/kg
[6] = lung, Day 4, number of animals of 3

COc1cccc(Oc2ccc([N+](=O)[O-])cc2S(=O)(=O)NC(=O)NC(C)(C)C)c1 [Compound 9h, reference compound]
IC50 (TPβ): 270 nM | IC50 (human platelets [1]; Homo sapiens, Platelet): 513 nM | IC50 (TPα): 612 nM | TPα:TPβ Selectivity Ratio (TPα): 2.3

O=C(O)CCC/C=C\CC1C2CCC(O2)C1CNNC(=O)Nc1ccccc1 (stereo not shown) [SQ29,548, reference compound]
IC50 (human platelets [1]; Homo sapiens, Platelet): 8.33 nM

CCOC(=O)C1=C[C@@H](OC(CC)CC)[C@H](NC(C)=O)[C@@H](N)C1 [Tamiflu]
survival over the study ([2]; Tamiflu 10 mg/kg, TP20 360 μg/kg, 14 days): survived the full duration | Alveolar Acute Inflammation, number of animals with the finding ([2]; lung, Day 4, 3 animals): (1) | Bronchiolar Erosion, number of animals with the finding ([2]; lung, Day 4, 3 animals): (3) | Bronchiolar Exudate, number of animals with the finding ([2]; lung, Day 4, 3 animals): (3) | Bronchiolar acute Inflammation, number of animals with the finding ([2]; lung, Day 4, 3 animals): (3) | Vascular Necrosis, number of animals with the finding ([2]; lung, Day 4, 3 animals): (0) | Extent of Perivascular Edema (Mean ± S.E.M.), Per Animal [2, 5]: 21.2 ± 1.71 (52) arbitrary units and 20.7 ± 1.21 (66) arbitrary units and 19.3 ± 1.24 (77) arbitrary units | Extent of Perivascular Edema (Mean ± S.E.M.), Per Treatment Group [2, 5]: 20.6 ± 0.90 arbitrary units | reduction in the perivascular edema compared to vehicle [2, 5]: does not reduce the extent of perivascular edema | Alveolar Acute Inflammation, Minimal [2, 6]: 1 | Bronchiolar Erosion, Mild [2, 6]: 2 | Bronchiolar Erosion, Minimal [2, 6]: 0 | Bronchiolar Erosion, Moderate [2, 6]: 1 | Bronchiolar Exudate, Mild [2, 6]: 2 | Bronchiolar Exudate, Minimal [2, 6]: 1 | Bronchiolar Exudate, Moderate [2, 6]: 0 | Bronchiolar acute Inflammation, Mild [2, 6]: 3 | Bronchiolar acute Inflammation, Minimal [2, 6]: 0 | Perivascular Edema, Mild [2, 6]: 1 | Perivascular Edema, Minimal [2, 6]: 1 | Day of Minimum Body Weight Recorded, Mean (Mean Day to Recovery) ([2]; mouse, in vivo): 8.4 | Day of Minimum Body Weight Recorded, per animal ([2]; mouse, in vivo): 9 (7×) and 7 (3×) | Perivascular Edema, number of animals with the finding ([2]; mouse, in vivo): (2) | Weight @ Day 0 ([2]; n = 10/group): 17.56 ± 0.18 | Weight @ Day 14 ([2]; n = 10/group): 17.4 ± 0.32

CC(C)(C)NC(=O)NS(=O)(=O)c1cc([N+](=O)[O-])ccc1Oc1cccc(-c2ccc(C(F)(F)F)cc2)c1 [XII]
effect on ADP-induced platelet aggregation (human platelets [3]): did not affect | IC50 (TPβ): 86 nM | effect on thrombin-induced platelet aggregation (human platelets [4]): did not affect | IC50 (human platelets [1]; Homo sapiens, Platelet): 129 nM | IC50 (TPα): 89.8 nM | TPα:TPβ Selectivity Ratio (TPα): 1

Cc1ccc(-c2cccc(Oc3ccc([N+](=O)[O-])cc3S(=O)(=O)NC(=O)NC(C)(C)C)c2)cc1 [XLI]
effect on ADP-induced platelet aggregation (human platelets [3]): did not affect | IC50 (TPβ): 16.5 nM | effect on thrombin-induced platelet aggregation (human platelets [4]): did not affect | IC50 (human platelets [1]; Homo sapiens, Platelet): 230 nM | IC50 (TPα): 106 nM | TPα:TPβ Selectivity Ratio (TPα): 6.4

COC(=O)c1ccc(-c2cccc(Oc3ccc([N+](=O)[O-])cc3S(=O)(=O)NC(=O)NC(C)(C)C)c2)cc1 [XLVI]
effect on ADP-induced platelet aggregation (human platelets [3]): did not affect | IC50 (TPβ): 36.5 nM | effect on thrombin-induced platelet aggregation (human platelets [4]): did not affect | IC50 (human platelets [1]; Homo sapiens, Platelet): 4.12 nM | IC50 (TPα): 114 nM | TPα:TPβ Selectivity Ratio (TPα): 3

CC(=O)c1ccc(-c2cccc(Oc3ccc([N+](=O)[O-])cc3S(=O)(=O)NC(=O)NC(C)(C)C)c2)cc1 [XLV]
effect on ADP-induced platelet aggregation (human platelets [3]): did not affect | IC50 (TPβ): 33.7 nM | effect on thrombin-induced platelet aggregation (human platelets [4]): did not affect | IC50 (human platelets [1]; Homo sapiens, Platelet): 159 nM | IC50 (TPα): 186 nM | TPα:TPβ Selectivity Ratio (TPα): 5.5

N-(tert-butylcarbamoyl)-2-(3-methoxyphenoxy)-5-nitrobenzenesulfonamide [Compound 9ag, reference compound]
IC50 (TPβ): 379 nM | IC50 (human platelets [1]): 985 nM | IC50 (TPα): 1750 nM | TPα:TPβ Selectivity Ratio (TPα): 4.5
